Data taken from patent US20250268799A1, “MEDIUM FOR WATER-FREE ROOT CANAL DISINFECTANT WITH HIGH FLUIDITY, DISINFECTANT USING SAME, AND USE THEREOF” (WENZHOU QINGCHENG HEALTHCARE TECH LTD., priority 2022, published 2025).

Key:
Water dispersion test = assay type: physicochemical; settings: 0.5% surfactant added to Paste A
Method: Add appropriate food-grade carmine dye to the above pastes, homogenize thoroughly with a homogenizer so that each paste can be squeezed out from a 25 G root canal irrigation needle, and divide into syringes for use.
S1: Prepare 23 150 mL beakers with similar diameters, fill them with water, and inject one drop (approximately 0.01 g) of each of the 23 pastes (A, B, C, D, E, F, G, H, A1-A15) into each beaker through a 25 G root canal irrigation needle (except G and H).
S2: Observe the color change immediately after preparation.

bacteria = settings: intracanal medicament for one week; cited from earlier work
Enterococcus faecalis = settings: in vitro direct contact; cited from earlier work

Row | Compound | effect of surfactant on the dispersion of the paste in water (Water dispersion test) | reduction of bacteria (bacteria) [%] | contact time for complete eradication of Enterococcus faecalis (Enterococcus faecalis) [h]
1 | CC(=O)O.CC(=O)O.NC(=N\CCCCCC/N=C(N)/N=C(\N)Nc1ccc(Cl)cc1)/N=C(\N)Nc1ccc(Cl)cc1 [CHX, Chlorhexidine Acetate] | best performance | – | –
2 | Polyoxyethylene (60) Hydrogenated Castor Oil [RH60] | best performance | – | –
3 | [Ca+2].[OH-].[OH-] [calcium hydroxide] | – | 92.5 | 24
4 | Fatty Alcohol Polyoxyethylene Ether [AEO-9] | negative effects | – | –
